This note sets out measurements from patent EP0813872A1, “Berberine derivates for inhibiting hsp27 production” (Kureha Chemical Industry Co., Ltd., priority 1996, dated 1997).

The assay relates to HSP27. As to the kind of experiment: Inhibition of HSP27 production in heat-shocked human cancer cell lines (Western blotting). Format: cell-based. Conditions: Western blot, 20 µM, control showed a single band. As to the method: The following various human cancer cell lines were cultured under 5% CO2, at 37 °C, except for the heat shock treatment period. The lung cancer cell line H69 (ATCC HTB 119), the gastric cancer cell line KATO III (ATCC HTB 103), the colon cancer cell line COLO 205 (ATCC CCL 222), and the prostate cancer cell line DU145 (ATCC HTB 81) were cultured in an RPMI1640 medium containing 10% inactivated fetal bovine serum (hereinafter referred to as FBS).
The uterine cancer cell line HeLa S3 (ATCC CCL 2.2) was cultured in an MEM medium containing 10% inactivated FBS.
The neuroblastoma cell line SK-N-MC (ATCC HTB 10) was cultured in an MEM medium containing non-essential amino acids (L-alanine = 8.9 mg/l, L-asparagine·H2O = 15.0 mg/l, L-aspartic acid = 13.3 mg/l, L-glutamic acid = 14.7 mg/l, glycine = 7.5 mg/l, L-proline = 11.5 mg/l and L-serine = 10.5 mg/l) and 10% inactivated FBS.
The berberine hydrochloride of the formula (III) (the final concentration = 20 µM: Matsuura Yakugyo) was added to each medium of the above human cancer cell lines 2 days after the inoculation. After the berberine hydrochloride treatment for 24 hours, a heat shock was applied at 45 °C for 15 minutes, and the cells were then cultured at 37 °C overnight. The control tests were carried out by performing the above procedures except that the berberine hydrochloride was not added.
The cells treated in the above (2) were homogenized, and the amounts of HSP27 produced were measured by the Western blotting method.
The cells treated in the above (2) were washed with phosphate buffered physiological saline [composition: KC1 = 0.2 g/l, KH2PO4 = 0.2 g/l, NaCl = 8 g/1, Na2HPO4 (anhydrous) = 1.15 g/l: hereinafter referred to as PBS(-): COSMO BIO CO. Catalogue No. 320-01], and 1 ml of lysis buffer [1.0% NP-40, 0.15 M sodium chloride, 50 mM Tris-HCl (pH 8.0), 5 mM-EDTA, 2 mM-N-ethylmaleimide, 2 mM phenylmethylsulfonyl fluoride, 2 µg/ml leupeptin, and 2 µg/ml pepstatin] was added. The whole was allowed to stand for 20 minutes on ice, and then centrifuged at 4 °C and 12000 rpm for 20 minutes. The resulting supernatant (10 µl) was added to 790 µl of PBS(-), and then 200 µl of a protein assay dye reagent solution (Dye Reagent Concentrate: Bio-Rad Laboratories, Catalogue No. 500-0006) was added. The whole was allowed to stand at room temperature for 5 minutes, and the absorbance at 595 nm was measured to determine the amounts of proteins.
For the SDS-polyacrylamide gel electrophoresis (SDS-PAGE) of the samples, the protein concentration of which were measured, aliquots containing the same amount of protein were loaded onto the gel. The SDS-PAGE was performed according to the Laemmli method (Laemmli, […]). After the electrophoresis, the blotting and then blocking were carried out. More particularly, the gel was brought into contact with a 0.45 µm nitrocellulose membrane (Schleicher & Schuell, Catalogue No. 401196) at room temperature and 100 V, using a protein-transferring apparatus (Trans-Blot Electrophoretic Transfer Cell: Bio-Rad), and blotting was carried out for 3 hours. The blotting buffer used was prepared by adding methyl alcohol to Tris-glycine buffer (pH 8.5) consisting of 0.025 M Tris and 0.192 M glycine (Tris Gly Running and Blotting Buffer; Enprotech, Mass., USA; Catalogue No. SA100034), so that the concentration of methyl alcohol became 20%. After blotting, the nitrocellulose membrane was incubated in a 10% skimmed milk-PBS(-) solution at room temperature for 30 minutes, to block non-specific bindings.
After blocking, the first antibody reaction was carried out on the nitrocellulose membrane, using a screener blotter (Sanplatec), and the anti-human-HSP27 mouse monoclonal antibody (StressGen, Victoria, B.C., Canada, Catalogue No. SPA-800). […]

Where a name gives a salt, the structure may show the parent alone.

For `COc1ccc2cc3[n+](cc2c1OC)CCc1cc2c(cc1-3)OCO2` [berberine hydrochloride], the “band of the molecular weight of approximately 27 kDa” value is, setting by setting: (colon cancer cell line COLO 205) “faint in comparison with the control tests”; (gastric cancer cell line KATO III) “faint in comparison with the control tests”; (lung cancer cell line H69) “no band of the molecular weight of approximately 27 kDa was detected”; (neuroblastoma cell line SK-N-MC) “no band of the molecular weight of approximately 27 kDa was detected”; (prostate cancer cell line DU145) “no band of the molecular weight of approximately 27 kDa was detected”; (uterine cancer cell line HeLa S3) “no band of the molecular weight of approximately 27 kDa was detected”.
